Patent US20170183318A1, “AMIDE COMPOUNDS, METHODS FOR PREPARATION, AND USE THEREOF AS AGENTS FOR THE TREATMENT AND PREVENTION OF DISEASES CAUSED BY RNA- AND/OR DNA-CONTAINING VIRUSES, AND CONCOMITANT DISEASES” (OBSCHESTVO S OGRANICHENNOI OTVETSTVENNOSTIYU …, priority 2014, published 2017)

How the values were obtained:
[1] = system: Sendai strain of parainfluenza virus; assay: Antiviral activity against parainfluenza virus in mice (mortality); type: in vivo, white outbred mice; details: Mus musculus, po, 336 h, 10LD50 intranasally, 30 mg/kg orally once daily 24-120 h after infection, 14 days observation, 20 mice per group, virus control 75.0
Protocol: In the study the Sendai strain of parainfluenza virus was used. White outbred mice weighing 10-12 g were infected intranasally with the Sendai strain of parainfluenza virus adapted to mouse lungs under brief ether anesthesia in a volume of 0.05 ml/mouse. The infectious dose of the virus that caused 70-80% mortality in mice was 10LD50. Each group used in the experiment comprised 20 animals. Intact animals served as control and were hold in a separate room under the same conditions as the experimental animals. The antiviral activity of the compounds of general formula I was studied by oral administration of the compounds to infected mice once daily at a dose of 30 mg/kg/mouse 24, 48, 72, 96, and 120 hours after infection of the animals with the virus. The mice of the control group were administered placebo (0.2 mL of physiological solution) under the same conditions. The animals were monitored for 14 days after infection by registration the mouse death in the groups.
Each animal was subjected to once-daily observation. The observation included the assessment of general behavior and body condition of animals. In days of administration of preparations, the observation was conducted before administration of a preparation in a certain time and about two hours after administration. The animals were handled according to the International Standards.
(§1) The activity of the compounds was evaluated by comparing mortality rates in the groups of animals administered a preparation and placebo.

[2] = Rat model of nasopharyngitis induced by formalin (nasal mucosa changes, cell elements in nasal lavage); type: in vivo; details: Wistar rats, 18 mg/kg for 3 days; for Mucous membrane of nasal passages: Without changes (number of animals): number of animals out of n = 10, control 0 of 20; for Mucous membrane of nasal passages: Discharge mucus from the nasal passages (number of animals): number of animals out of n = 10, control 20 of 20
Protocol: Nasopharyngitis was induced by intranasal administration of formalin to each nasal passage of rats.
The administration of formalin to the nasal passages of rats leads to the dissemination of inflammation to adjacent tissues, resulting in a clinical pattern similar to the symptoms of nasopharyngitis in a human.
After an acclimatization period, the following groups were formed: • intact animals administered intragastrically a physiological solution in an amount of 0.2 ml, without induction of nasopharyngitis; • a control group consisted of animals administered intragastrically a physiological solution in an amount of 0.2 ml for 3 days after induction of nasopharyngitis; and • animals administered the studied compounds at a dose of 18 mg/kg for 3 days after induction of nasopharyngitis.
Clinical observation of each animal was performed every day at least twice daily.
The caused pathology was characterized by hyperplasia, increased number of caliciform cells, pronounced infiltration of mononuclear cells and leucocytes, and mucus hyperproduction by submucosal glands.
After euthanasia, the inflammation pattern in the nasal passages and throat was studied in each group of animals. The nasal passages were washed with 5 mL of physiological solution and the score of cell elements were counted in 1 μL.

[3] = system: hRV; assay: Antiviral activity against rhinovirus in mice (infectious titer in lungs titrated in Hela cells; body and lung weight); type: in vivo; details: 30 mg/kg orally once daily for 4 days from 12 h after infection; lung suspension titrated in Hela cells
Protocol: In this study, author's strain of hRV was used. The animals were infected with the virus intranasally under brief ether anesthesia in a volume of 0.05 ml/mouse.
To determine the efficiency of the compounds against hRV in the experimental model in vivo, the virus was previously titrated in mice, then the mice were infected, and the studied compounds were administered orally. The infectious titer was assessed on day 4 after infection by titration of a lung suspension in Hela cell culture. The infectious titer of the hRV virus in the lugs of the experimental group was determined in comparison with that in the control group by TCID.
The studied compounds and placebo (physiological solution) were orally administered to the mice once daily for 4 days, starting 12 hours after infection. The compounds were administered at a dose of 30 mg/kg of animal body weight. Intact animals served as a negative control and were kept under the same conditions as the experimental animals in a separate room.
The antiviral activity of the studied compounds was determined on day 4 after infection by a reduction of the virus infectious activity determined in Hela cell culture.

[4] = system: human adenovirus type 5; assay: Model of experimental adenovirus infection (destructive processes in the liver, electron microscopy); type: in vivo; details: newborn Syrian hamsters, 30 mg/kg orally 12, 36, 60 h after infection, liver 72 h after infection, virus control Intensive damages
Protocol: In the study, human adenovirus type 5 was used. In order to play adenovirus infection were used Newborn Syrian hamsters, in which the virus caused disseminated viral infection with damage to liver, lung and heart, were used to reproduce the viral infection. The animals were studied 48 hours after birth. Each group comprised 5 hamsters. The virus was inoculated subcutaneously in a volume of 0.1 mL, at a dose of 10^5 TCID50. The treatment was carried out orally with the compounds of general formula I at a dose of 30 mg/kg of body weight 12, 36, and 60 hours after infection. The animals of the placebo group were administered phosphate buffered saline. Intact animals served as control and were hold in a separate room under the same conditions as the experimental animals. 72 hours after infection, the animals of each group were euthanized, dissected, and the liver was isolated. The therapeutic effect was evaluated by the action on ultrastructural features of the morphogenesis of adenovirus infection in the liver by electron microscopy.

[5] = system: HCoV (antigenically similar to prototype strain OC-43); assay: Murine model of coronavirus infection (mortality); type: in vivo; details: Mus musculus, po, 336 h; HCoV intranasally, C57BL/6 mice; 30 mg/kg orally once daily for 5 days from 24 h after infection; 14 days; 20 mice per group; virus control 60.0
Protocol: In the study, author's strain HCoV was used, identified as group 2 virus antigenically similar to prototype strain OC-43. The efficiency of the compounds was studied in C57BL/6 mice by comparing mortality rates in the treated and control mice for 14 days after infection. Each experimental group comprised 20 mice. The animals were infected intranasally in a volume of 0.03 ml/mouse under brief ether anesthesia.
The studied compounds were administered to the animals orally at a dose of 30 mg/kg of body weight. The animals of the control group were administered physiological solution. Preparations were administered once daily for 5 days. The treatment of animals was started 24 hours after infection.

[6] = system: herpes simplex virus belonging to antigenic type 2; assay: Murine model of experimental herpetic meningoencephalitis (mortality); type: in vivo, white outbred mice; details: Mus musculus, po, 336 h
Protocol: In the study, herpes simplex virus belonging to antigenic type 2 was used. White outbred mice weighing 7-8 g were infected i/c (intracerebrally) in a volume of 0.05 ml/mouse comprising a dose of 10LD50. The infectious dose of the virus that caused 100% mortality in mice was 10LD50. Each experimental group comprised 20 mice. Intact animals served as control and were hold in a separate room under the same conditions as the experimental animals. The antiviral activity of the compounds of general formula I was studied by oral administration of the compounds to infected mice once daily at a dose of 30 mg/kg/mouse 24, 48, 72, 96, and 120 hours after infection of the animals with the virus. The mice of the control group were administered placebo (0.2 mL of physiological solution) under the same conditions. The animals were monitored for 14 days after infection by registration the mouse death in the groups.
Each animal was subjected to once-daily observation. The observation included the assessment of general behavior and body condition of animals. The animals were handled according to the International Standards.
as §1

O=C(O)CCCC(=O)NCCc1nc2ccccc2s1 [Compound 275]
mortality at 30 mg/kg [1]: 40% | Mucous membrane of nasal passages: Without changes (number of animals) [2]: 3 | Mucous membrane of nasal passages: Discharge mucus from the nasal passages (number of animals) [2]: 7 | Infectious titer of the virus in lungs lg TCID50 (4 days after infection) [3]: 0.45 ± 0.1 lg TCID50 | Evaluation of damage (intensity of destructive processes in the liver) [4]: Mild damage | mortality at 30 mg/kg [5]: 40% | mortality at 30 mg/kg [6]: 60%

CC(C)N(CCc1cnc[nH]1)C(=O)CCCC(=O)O [Compound 141]
mortality at 30 mg/kg [1]: 40% | Mucous membrane of nasal passages: Without changes (number of animals) [2]: 4 | Mucous membrane of nasal passages: Discharge mucus from the nasal passages (number of animals) [2]: 6 | Infectious titer of the virus in lungs lg TCID50 (4 days after infection) [3]: 0 ± 0 lg TCID50 | Evaluation of damage (intensity of destructive processes in the liver) [4]: Mild damage | mortality at 30 mg/kg [5]: 35% | mortality at 30 mg/kg [6]: 50%

O=C(O)CCCC(=O)NCCC1CCCN1 (stereo not drawn) [Compound 2]
mortality at 30 mg/kg [1]: 35% | Mucous membrane of nasal passages: Without changes (number of animals) [2]: 3 | Mucous membrane of nasal passages: Discharge mucus from the nasal passages (number of animals) [2]: 7 | Infectious titer of the virus in lungs lg TCID50 (4 days after infection) [3]: 0.1 ± 0.05 lg TCID50 | Evaluation of damage (intensity of destructive processes in the liver) [4]: Mild damage | mortality at 30 mg/kg [5]: 30% | mortality at 30 mg/kg [6]: 55%

O=C(O)CCCC(=O)NCCCc1cccs1 [Compound 34]
mortality at 30 mg/kg [1]: 15% | Mucous membrane of nasal passages: Without changes (number of animals) [2]: 3 | Mucous membrane of nasal passages: Discharge mucus from the nasal passages (number of animals) [2]: 7 | Infectious titer of the virus in lungs lg TCID50 (4 days after infection) [3]: 0.5 ± 0.20 lg TCID50 | Evaluation of damage (intensity of destructive processes in the liver) [4]: Mild damage | mortality at 30 mg/kg [5]: 45% | mortality at 30 mg/kg [6]: 70%

Cc1csc(CCNC(=O)CCCC(=O)O)n1 [Compound 197]
mortality at 30 mg/kg [1]: 25% | Mucous membrane of nasal passages: Without changes (number of animals) [2]: 6 | Mucous membrane of nasal passages: Discharge mucus from the nasal passages (number of animals) [2]: 4 | Infectious titer of the virus in lungs lg TCID50 (4 days after infection) [3]: 0.37 ± 0.06 lg TCID50 | Evaluation of damage (intensity of destructive processes in the liver) [4]: Mild damage | mortality at 30 mg/kg [5]: 45% | mortality at 30 mg/kg [6]: 55%

CC(Cc1cnc[nH]1)NC(=O)CCCC(=O)O (stereo not drawn) [Compound 115]
mortality at 30 mg/kg [1]: 30% | Mucous membrane of nasal passages: Without changes (number of animals) [2]: 3 | Mucous membrane of nasal passages: Discharge mucus from the nasal passages (number of animals) [2]: 7 | Infectious titer of the virus in lungs lg TCID50 (4 days after infection) [3]: 0.05 ± 0.05 lg TCID50 | Evaluation of damage (intensity of destructive processes in the liver) [4]: Mild damage | mortality at 30 mg/kg [5]: 30% | mortality at 30 mg/kg [6]: 65%

O=C(O)CCCC(=O)NCCCc1c[nH]cn1 [Compound 118]
mortality at 30 mg/kg [1]: 30% | Mucous membrane of nasal passages: Without changes (number of animals) [2]: 5 | Mucous membrane of nasal passages: Discharge mucus from the nasal passages (number of animals) [2]: 5 | Infectious titer of the virus in lungs lg TCID50 (4 days after infection) [3]: 0 ± 0 lg TCID50 | Evaluation of damage (intensity of destructive processes in the liver) [4]: Mild damage | mortality at 30 mg/kg [5]: 40% | mortality at 30 mg/kg [6]: 70%

O=C(O)CCCC(=O)NC(Cc1c[nH]cn1)C(=O)O (stereo not drawn) [Compound 251]
mortality at 30 mg/kg [1]: 35% | Mucous membrane of nasal passages: Without changes (number of animals) [2]: 4 | Mucous membrane of nasal passages: Discharge mucus from the nasal passages (number of animals) [2]: 6 | Infectious titer of the virus in lungs lg TCID50 (4 days after infection) [3]: 0 ± 0 lg TCID50 | Evaluation of damage (intensity of destructive processes in the liver) [4]: Mild damage | mortality at 30 mg/kg [5]: 30% | mortality at 30 mg/kg [6]: 65%

O=C(O)CCCC(=O)NCCC1CCCCN1 (stereo not drawn) [Compound 6]
mortality at 30 mg/kg [1]: 25% | Mucous membrane of nasal passages: Without changes (number of animals) [2]: 4 | Mucous membrane of nasal passages: Discharge mucus from the nasal passages (number of animals) [2]: 6 | Infectious titer of the virus in lungs lg TCID50 (4 days after infection) [3]: 0.4 ± 0.15 lg TCID50 | Evaluation of damage (intensity of destructive processes in the liver) [4]: Mild damage | mortality at 30 mg/kg [5]: 35% | mortality at 30 mg/kg [6]: 60%
